The conditions of data set [1]: buffer, pH 7.4.
A further data set relates to HOP-62. The data set can be described thus: NCI human cancer cell line screen, antiproliferative activity, Lung HOP-62. It counts as cell-based. The note with it: concentration corresponding to 50% growth inhibition, read-out: cytotoxicity GI50, Lung HOP-62. Here is the method: (§1) The new synthesized brefeldin A prodrug candidates and analogs were examined for antiproliferative activity against human cancer cell lines in the National Cancer Institute screen, in which the activity of each compound was evaluated with approximately 55 different cancer cell lines of diverse tumor origins.

For data set [2], the system named is all human cancer cell lines successfully tested. The data set can be described thus: NCI screen, mean graph midpoint over approximately 55 cancer cell lines. The note with it: average GI50 for all cell lines tested (approximately 55); test range 10^-4 to 10^-8 molar. It counts as cell-based. Here is the method: as §1
The test system of a further data set is OVCAR-3. The experiment in a line: NCI human cancer cell line screen, antiproliferative activity, Ovarian OVCAR-3. The data set is classed as cell-based. The note with it: concentration corresponding to 50% growth inhibition, read-out: cytotoxicity GI50, Ovarian OVCAR-3. Here is the method: as §1
For the next data set, the system named is SF-539. The experiment in a line: NCI human cancer cell line screen, antiproliferative activity, CNS SF-539. The data set is classed as cell-based. The note with it: concentration corresponding to 50% growth inhibition, read-out: cytotoxicity GI50, CNS SF-539. Here is the method: as §1
In a further data set the test system is MDA-MB-435. The experiment in a line: NCI human cancer cell line screen, antiproliferative activity, Breast MDA-MB-435. The data set is classed as cell-based. The note with it: concentration corresponding to 50% growth inhibition, read-out: cytotoxicity GI50, Breast MDA-MB-435. Here is the method: as §1
The subject of a further data set is UACC-62. The experiment in a line: NCI human cancer cell line screen, antiproliferative activity, Melanoma UACC-62. The note with it: concentration corresponding to 50% growth inhibition, read-out: cytotoxicity GI50, Melanoma UACC-62. It counts as cell-based. Here is the method:
as §1

Data set [3] can be described thus: Solubility of saturated solutions in distilled water, gravimetric. The note with it: distilled water at room temperature, saturated solution.
The subject of another data set is HCT-116. The experiment in a line: NCI human cancer cell line screen, antiproliferative activity, Colon HCT-116. It counts as cell-based. The note with it: concentration corresponding to 50% growth inhibition, read-out: cytotoxicity GI50, Colon HCT-116. Here is the method:
as §1

The test system of the next data set is DU-145. The data set can be described thus: NCI human cancer cell line screen, antiproliferative activity, Prostate DU-145. The note with it: concentration corresponding to 50% growth inhibition, read-out: cytotoxicity GI50, Prostate DU-145. The data set is classed as cell-based. Here is the method:
as §1

Another data set relates to SN12C. The experiment in a line: NCI human cancer cell line screen, antiproliferative activity, Renal SN12C. It counts as cell-based. The note with it: concentration corresponding to 50% growth inhibition, read-out: cytotoxicity GI50, Renal SN12C. Here is the method: as §1

In brackets after ≈: the same amount, converted by molar mass.

The values that follow come from US6362218B1, “Brefeldin A derivatives” (Purdue Research Foundation, priority 1997, dated 2002).

As usually defined, the GI50 is the concentration giving 50% growth inhibition. The solubility is the dissolved amount per volume that the medium holds. High values mean much dissolved substance, low ones little dissolved substance.

In the case of `COC(=O)CC[S+]([O-])C1CC(=O)OC(C)CCCC=CC2CC(O)CC2C1O` [Compound 13, 2,3-Dihydro-(3R)-(2′-methoxycarbonylethylsulfinyl)brefeldin A], the “half-life for the conversion of the sulfoxide to brefeldin A” value in data set [1] stood at 87.4 h.
`CC1CCCC=CC2CC(O)CC2C(O)C(SCCO)CC(=O)O1` [Compound 5, 2,3-Dihydro-(3R)-(2′-hydroxyethylthio)brefeldin A]: the GI50 came out at 34 µM in the data set on HOP-62; 27 µM in the data set on OVCAR-3; 23 µM in the data set on SF-539; 34 µM in the data set on MDA-MB-435; 40 µM in the data set on UACC-62; 19 µM in the data set with HCT-116. Further, the GI50 stood at 30 µM in the data set on DU-145 and 33 µM with SN12C. Moreover, the “MGM (mean graph midpoint for growth inhibition)” value in [2] amounted to 20 µM. In data set [3], this compound showed a solubility of 12 mg/mL (≈ 33.5 mM).
Regarding `CC1CCCC=CC2CC(O)CC2C(O)[C@H](CC(=O)O)CC(=O)O1` (stereo partly drawn) [Compound 6, 2,3-Dihydro-(3R)-(carboxymethyl)brefeldin A], the GI50 came out at 30 µM in the data set on HOP-62; 30 µM in the data set on OVCAR-3; 34 µM in the data set on SF-539; 42 µM in the data set with MDA-MB-435; 33 µM in the data set with UACC-62; 23 µM with HCT-116. In addition, the GI50 was found to be 38 µM in the data set with DU-145 and 39 µM in the data set with SN12C. For the same compound, in [2], the “MGM (mean graph midpoint for growth inhibition)” value was determined as 33 µM. Besides, in [3], the solubility was determined as 40 mg/mL (≈ 118 mM).
With `CC1CCCC=CC2CC(O)CC2C(O)[C@H]([S+]([O-])CCO)CC(=O)O1` (stereo partly drawn) [Compound 15, 2,3-Dihydro-(3R)-(2′-hydroxyethylsulfinyl)brefeldin A], the GI50 in the data set with HOP-62 is 0.29 µM; in the data set with OVCAR-3 it was 0.19 µM; in the data set with SF-539 it was 0.058 µM; in the data set on MDA-MB-435, 0.09 µM; in the data set with UACC-62, 0.064 µM; with HCT-116 it was 0.21 µM. For the same compound, the 50% growth inhibitory concentration (GI50) in the data set with DU-145 turned out to be 0.26 µM; with SN12C it was 0.65 µM. Also, the “MGM (mean graph midpoint for growth inhibition)” value in data set [2] was found to be 0.11 µM. Further, in data set [1], the “half-life for the conversion of the sulfoxide to brefeldin A” value was found to be 4.81 h.
